Here are results for 2 compounds from PMC4364445 (Chemical Science, 2015).

For data set [1], the system named is human intestinal microsomes (HIM). Put plainly: Biocolloid reactor bead LC-MS/MS DNA adduct quantitation, HIM. The format is biochemical. The settings on record: 250 μM 2-AAF, 4 h; organ comparison.
The next data set addresses T1, cyt P450 1B1 supersomes (Homo sapiens, UniProt Q16678).
T1 sequence (Q16678 1-543): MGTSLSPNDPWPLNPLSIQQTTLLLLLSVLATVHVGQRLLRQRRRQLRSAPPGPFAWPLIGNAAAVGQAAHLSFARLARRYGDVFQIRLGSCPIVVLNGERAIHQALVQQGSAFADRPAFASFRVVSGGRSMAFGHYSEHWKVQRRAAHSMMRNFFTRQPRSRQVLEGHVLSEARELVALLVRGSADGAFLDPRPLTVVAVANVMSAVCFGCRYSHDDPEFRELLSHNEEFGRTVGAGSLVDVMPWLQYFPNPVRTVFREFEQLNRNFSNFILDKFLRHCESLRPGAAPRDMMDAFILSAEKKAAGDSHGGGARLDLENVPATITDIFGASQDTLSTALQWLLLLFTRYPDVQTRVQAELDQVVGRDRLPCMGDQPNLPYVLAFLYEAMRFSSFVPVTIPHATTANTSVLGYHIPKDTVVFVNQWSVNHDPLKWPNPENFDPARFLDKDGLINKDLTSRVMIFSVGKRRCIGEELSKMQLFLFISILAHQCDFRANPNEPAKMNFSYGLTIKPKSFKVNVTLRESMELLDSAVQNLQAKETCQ
Put plainly: ECL enzyme/DNA array DNA damage rate, cyt P450 1B1. The format is biochemical. The settings on record: pH 7.4.

The target in the next data set is T2, cyt P450 1A2 supersomes (Homo sapiens, UniProt P05177).
T2 sequence (P05177 2-516 limits assumed): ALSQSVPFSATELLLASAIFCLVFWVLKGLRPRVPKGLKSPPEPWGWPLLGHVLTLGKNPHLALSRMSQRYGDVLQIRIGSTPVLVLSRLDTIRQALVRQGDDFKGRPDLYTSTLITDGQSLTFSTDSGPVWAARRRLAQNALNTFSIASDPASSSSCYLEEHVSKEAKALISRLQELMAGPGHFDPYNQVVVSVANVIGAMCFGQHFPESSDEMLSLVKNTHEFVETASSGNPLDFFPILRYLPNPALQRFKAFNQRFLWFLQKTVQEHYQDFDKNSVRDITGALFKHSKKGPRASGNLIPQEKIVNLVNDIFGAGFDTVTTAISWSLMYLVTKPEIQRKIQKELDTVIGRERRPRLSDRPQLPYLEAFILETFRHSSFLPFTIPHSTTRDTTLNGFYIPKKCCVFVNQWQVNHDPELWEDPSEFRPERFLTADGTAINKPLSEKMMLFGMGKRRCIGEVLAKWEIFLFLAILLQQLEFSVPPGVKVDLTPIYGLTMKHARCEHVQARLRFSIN
Put plainly: ECL enzyme/DNA array DNA damage rate, cyt P450 1A2. The format is biochemical. The following applies: 250 μM 2-AAF, pH 7.4; cyt P450 1A2 compared to cyt P450s 2A6, 3A5 and 1B1.

The subject of another data set is rodent. The following applies: chronic dietary exposure, ref [40],[49]; cited from earlier work.
The next data set relates to male rats. The settings on record: intraperitoneal, ref [60]; cited from earlier work.
Another data set deals with mice. The following applies: dietary administration, ref [61]; cited from earlier work.
For data set [2], the system named is human organ tissue enzymes (liver, lung, intestine, kidney microsomes with or without cytosol). Put plainly: ECL enzyme/DNA array DNA damage rate, comparison across organ enzymes. The following applies: pH 7.4.
In data set [3] the test system is human organ microsomes, cytosols and cyt P450 supersomes. Put plainly: Biocolloid reactor bead LC-MS/MS DNA adducts, comparison across enzyme sources. The settings on record: 250 μM 2-AAF, 4 h; all enzyme sources with cytosol.
Data set [4] relates to cyt P450 supersomes (3A4, 2A6, 3A5) with or without cytosol. Put plainly: ECL enzyme/DNA array DNA damage rate, comparison across cyt P450 supersomes. It is filed as biochemical, human. The following applies: 1 mM styrene, pH 7.4; supersomes + cytosol vs supersomes.

In the case of `CC(=O)Nc1ccc2c(c1)Cc1ccccc1-2` [2-AAF, 2-acetylaminofluorene], in data set [1], the “total levels of adducts 8 and 9 (LC-MS/MS)” value is “highest for intestine”. In addition, the “DNA damage-related activity (ECL array)” value at cyt P450 1B1 supersomes (250 μM 2-AAF) is recorded as “small”. In addition, the “relative DNA damage rate (ECL array)” value on cyt P450 1A2 supersomes is listed as “significantly larger rate of DNA damage”. The “formation of tumors, organ order” value with rodent is reported as “liver > intestine > kidney”. The “DNA adduct levels, liver vs bladder” value with male rats is given as “higher levels of DNA adduct levels in liver than in bladder”. In the data set with mice, the “DNA adduct levels, bladder vs liver” value was “higher DNA adduct levels in bladder than in liver”. Besides, the “order of DNA damage rates across organs (ECL array)” value in [2] (250 μM 2-AAF, microsomes with cytosolic enzymes included) is reported as “kidney > intestine > lung > liver”. The “adduct 9 in the presence of cytosol enzymes (LC-MS/MS)” value in data set [3] was “not detected”.

Take `C=Cc1ccccc1` [styrene]: the “DNA damage activity (ECL array)” value on cyt P450 1B1 supersomes (1 mM styrene) is “low activity”. Further, the “decrease of rate of DNA damage when using cyt P450 supersomes and cytosol (ECL array)” value in data set [4] came out at 10 fold. The “change of rate of DNA damage upon using microsomes and cytosol (ECL array)” value in data set [2] (1 mM styrene, microsomes + cytosol vs microsomes) is reported as “halved”.
